In patent publication US8513277B2, “Pyrrolo[3,2-C] pyridine derivatives and processes for the preparation thereof” (Yuhan Corporation, priority 2004, dated 2013):
Counter-ions that a name gives are not always drawn.

Tests used:
[1] = target: T1, H+/K+-ATPase (hog gastric vesicle) (Sus scrofa, UniProt P19156); experiment: Inhibitory effects on proton pump (H+/K+-ATPase) activity; format: biochemical; conditions: K+ stimulated H+/K+-ATPase activity, hog gastric vesicles, Pi measured at 620 nm
T1 construct: used as an enzyme source of the in vitro enzyme reaction assay of proton pump; from tissue; host or cells: hog gastric fundic mucosa, membrane vesicles (sucrose/Ficoll gradient), lyophilized
Description: The hog fundic regions containing parietal and peptic cells were scraped with slide-glass. The collected cells were suspended in 10 ml of 0.25M sucrose buffer and homogenized using a tight-fitting Teflon-glass homogenizer. The homogenate was centrifuged for 35 min at 8,000 rpm and the pellet was discarded. The supernatant was further centrifuged for 75 min at 25,000 rpm. The resulting pellets were re-suspended in the sucrose buffer (10 ml), and then the suspension was laid onto discontinuous density gradients consisting of 0.25M sucrose buffer and isolation medium containing 9% Ficoll (w/w). After being centrifuged for 3 hours and 15 minutes at 100,000×g, the material at the interface of sucrose buffer and Ficoll solution was collected and then centrifuged for 40 minutes at 100,000×g. The resulting pellets were re-suspended in 1 ml of 5 mM […] buffer (pH 6.1). This material was lyophilized and stored at −70° C. and used as an enzyme source of the in vitro enzyme reaction assay of proton pump. The inhibitory effects of the compounds of the present invention against proton pump activity were evaluated in 96-well plate. In this assay, the K^+ specific H^+/K^+-ATPase activity was calculated based on the difference between the activity of H^+/K^+-ATPase activity with K^+ and without K^+ ion. In 96-well plate, 1% dimethylsulfoxide (DMSO) in buffer was added to negative and positive control groups and the diluted compounds of the present invention in buffer were added to test group. All assays were performed in 100 μl reaction volume at room temperature, and the hog gastric vesicle was kept in ice before use. […] Then lyophilized vesicle in 5 mM Pipes/Tris buffer (pH 6.1) was pre-incubated in the presence of various concentrations of test compounds. After a 5 minute incubation, negative and positive buffers were respectively added to the previous reaction mixture. As the substrate, ATP was added to the reaction buffer, and incubated for 30 minutes at 37° C. Enzymatic activity was stopped by the addition of colorimetric reagent (2× malachite green, 1× ammonium molybdate, 1× polyvinyl alcohol, 2× H2O) and the amount of mono phosphate (Pi) in the reaction was measured at 620 nm using the micro plate reader (Genios Pro, TECAN). The difference between the Pi production with K^+ and without K^+ is taken as K^+ stimulated H^+/K^+-ATPase activity. The IC50s of test compounds were calculated from each % inhibition value of compounds using the method of Litchfield-Wilcoxon (J. Pharmacol. Exp. Ther. (1949) 96, 99).

hog gastric H+/K+-ATPase = target: T2, hog gastric H+/K+-ATPase (Sus scrofa, UniProt P19156); experiment: Reversible inhibition of hog gastric H+/K+-ATPase (washout method); format: biochemical
T2 construct: Gastric vesicles were prepared from hog fundic mucosa; from tissue; host or cells: hog fundic mucosa, gastric vesicles (microsomes), lyophilized
Description: Gastric vesicles were prepared from hog fundic mucosa using the method of Saccomani et al. (Saccomani G, Stewart H B, Shqw D, Lewin M and Sachs G, Characterization of gastric mucosal membranes. IX. Fraction and purification of K-ATPase-containing vesicles by zonal centrifugation and free-flow electrophoresis technique. Biochem. Biophy. Acta. (BBA)-Biomembranes 465, 311-330, 1977). This material was lyophilized and stored at −70° C. The protein content of gastric vesicles was determined by the Bradford method using bovine serum albumin as a standard (Bradford MM, A rapid and sensitive method for the quantitation of microgram quantities of protein utilizing the principle of protein-dye binding. Anal Biochem. 72, 248-254, 1976).
Activity of H^+/K^+-ATPase in hog microsome (lyophilized vesicle) was measured by the inorganic phosphate released from ATP using an one-step colorimetric detection method at the concentration at which the test compounds have 50% inhibition of the proton pump (Chan K M, Delfert D, and Junger K D, A direct colorimetric assay for Ca^2+-stimulated ATPase activity. Anal Biochem, 157, 375-380, 1986). […]

[2] = test system: basal gastric acid secretion in pylorus-ligated rats; experiment: Inhibitory effects on basal gastric acid secretion in pylorus-ligated rats (Shay's rat model); format: in vivo, rat (Sprague Dawley); conditions: oral, one hour before pylorus ligation, total acid output 5 hours after ligation, male SD rats
Description: Inhibitory effects of the compounds of the present invention on basal gastric acid secretion were performed according to Shay's rat model (Shay, H., et al., 1945, gastroenterology, 5, 43-61). Male Sprague Dawley (SD) rats (200±10 g body weight) were divided into […] (n=5) and fasted for 24 hours with free access to water. Control group was orally administered with 0.5% methylcellulose alone and the other groups were orally administered with test compounds suspended in 0.5% methylcellulose solution at doses of 1, 3 and 10 mg/kg/5 ml one hour before pylorus ligation.
Under ether anesthesia, the abdomens of the rats were incised and then the pylorus was ligated. 5 hours after ligation, the animals were sacrificed, and the gastric contents were collected. The collected contents were centrifuged at 1,000×g for 10 minutes to obtain the gastric juice. Total acid output was measured by 0.01 N NaOH volume (ueq/ml) for automatic titration of the gastric juice to pH 7.0 and the ED50s of test compounds were calculated using the Litchfield-Wilcoxon method. % inhibitory activity was calculated from the following equation and the results are shown in Table 2.
% inhibitory activity of test compound=(total acid output of control group−total acid output of the group treated with test compounds)/total acid output of control group×100

T1 sequence (P19156 2-1034 limits assumed): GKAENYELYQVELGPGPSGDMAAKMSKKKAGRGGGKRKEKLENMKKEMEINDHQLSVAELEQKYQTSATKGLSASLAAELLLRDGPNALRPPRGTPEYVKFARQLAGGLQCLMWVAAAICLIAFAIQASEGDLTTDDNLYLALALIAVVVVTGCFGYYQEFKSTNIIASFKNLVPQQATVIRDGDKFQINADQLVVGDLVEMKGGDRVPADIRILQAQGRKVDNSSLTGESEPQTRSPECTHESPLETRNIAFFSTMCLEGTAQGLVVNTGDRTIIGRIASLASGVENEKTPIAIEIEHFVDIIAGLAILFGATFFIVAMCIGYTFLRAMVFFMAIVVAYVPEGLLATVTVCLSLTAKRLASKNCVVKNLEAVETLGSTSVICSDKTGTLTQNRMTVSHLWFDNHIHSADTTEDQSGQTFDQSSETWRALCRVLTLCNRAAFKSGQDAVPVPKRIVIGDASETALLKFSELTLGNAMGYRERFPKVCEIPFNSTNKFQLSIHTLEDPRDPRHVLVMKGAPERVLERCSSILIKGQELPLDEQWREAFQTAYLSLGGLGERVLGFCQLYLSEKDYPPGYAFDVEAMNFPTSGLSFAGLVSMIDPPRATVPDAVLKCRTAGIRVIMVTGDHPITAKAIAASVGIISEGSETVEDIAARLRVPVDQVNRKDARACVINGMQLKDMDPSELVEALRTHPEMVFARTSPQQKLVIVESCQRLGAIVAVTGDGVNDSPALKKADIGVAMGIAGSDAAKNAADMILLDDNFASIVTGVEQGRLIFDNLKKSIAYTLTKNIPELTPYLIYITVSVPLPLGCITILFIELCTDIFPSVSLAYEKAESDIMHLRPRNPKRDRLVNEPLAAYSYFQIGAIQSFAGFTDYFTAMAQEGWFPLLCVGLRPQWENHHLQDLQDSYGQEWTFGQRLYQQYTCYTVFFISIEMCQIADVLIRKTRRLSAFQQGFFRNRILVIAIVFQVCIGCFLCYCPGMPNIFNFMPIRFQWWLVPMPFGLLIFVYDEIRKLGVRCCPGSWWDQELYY
T1 sequence (P18434 whole entry partner): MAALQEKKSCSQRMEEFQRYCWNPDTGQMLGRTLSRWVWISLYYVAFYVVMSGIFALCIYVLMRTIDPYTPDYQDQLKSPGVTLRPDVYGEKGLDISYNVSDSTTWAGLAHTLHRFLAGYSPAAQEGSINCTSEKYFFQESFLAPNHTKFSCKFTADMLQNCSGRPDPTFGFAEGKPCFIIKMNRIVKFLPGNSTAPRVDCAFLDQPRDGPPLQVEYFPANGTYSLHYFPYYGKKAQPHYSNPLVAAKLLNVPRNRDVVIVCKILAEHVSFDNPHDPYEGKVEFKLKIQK
T2 sequence (P19156 2-1034 limits assumed): as the sequence (P19156 2-1034 limits assumed) above
T2 sequence (P18434 whole entry partner): as the sequence (P18434 whole entry partner) above

COCCn1c(C)c(Cc2ccccc2)c2c(N3CCc4ccccc4C3)nccc21 [Example 63, 3-benzyl-1-(2-methoxyethyl)-2-methyl-4-(1,2,3,4-tetrahydroisoquinolin-2-yl)-1H-pyrrolo[3,2-c]pyridine hydrochloride]
IC50 [1]: < 4000 nM

Cc1[nH]c2ccnc(N3CCc4ccccc4C3)c2c1Cc1ccccc1 [Example 70, 3-benzyl-2-methyl-4-(1,2,3,4-tetrahydroisoquinolin-2-yl)-1H-pyrrolo[3,2-c]pyridine sodium]
IC50 [1]: 220 nM

Cc1c(Cc2ccccc2)c2c(N3CCc4ccccc4C3)nccc2n1Cc1ccccc1 [Example 66, 1,3-dibenzyl-2-methyl-4-(1,2,3,4-tetrahydroisoquinolin-2-yl)-1H-pyrrolo[3,2-c]pyridine hydrochloride]
IC50 [1]: < 4000 nM

COCCn1c(C)c(C)c2c(N3CCc4ccccc4C3)nccc21 [Example 3, 2,3-dimethyl-1-(2-methoxyethyl)-4-(1,2,3,4-tetrahydroisoquinolin-2-yl)-1H-pyrrolo[3,2-c]pyridine hydrochloride]
IC50 [1]: 2050 nM

Cc1c(C)n(CCO)c2ccnc(N3CCc4ccccc4C3)c12 [Example 20, 2,3-dimethyl-1-(2-hydroxyethyl)-4-(1,2,3,4-tetrahydroisoquinolin-2-yl)-1H-pyrrolo[3,2-c]pyridine hydrochloride]
IC50 [1]: < 4000 nM

Cc1c(C)n(C)c2ccnc(N3CCc4ccccc4C3)c12 [Example 6, 1,2,3-trimethyl-4-(1,2,3,4-tetrahydroisoquinolin-2-yl)-1H-pyrrolo[3,2-c]pyridine hydrochloride]
IC50 [1]: 430 nM

Cc1[nH]c2ccnc(N3CCc4ccccc4C3)c2c1C [Example 1, 2,3-dimethyl-4-(1,2,3,4-tetrahydroisoquinolin-2-yl)-1H-pyrrolo[3,2-c]pyridine]
IC50 [1]: 470 nM

Cc1c(Cc2ccccc2)c2c(N3CCc4ccccc4C3)nccc2n1C1CC1 [Example 61, 3-benzyl-1-cyclopropyl-2-methyl-4-(1,2,3,4-tetrahydroisoquinolin-2-yl)-1H-pyrrolo[3,2-c]pyridine hydrochloride]
IC50 [1]: 280 nM

CCn1c(C)c(C)c2c(N3CCc4ccccc4C3)nccc21 [Example 7, 1-ethyl-2,3-dimethyl-4-(1,2,3,4-tetrahydroisoquinolin-2-yl)-1H-pyrrolo[3,2-c]pyridine hydrochloride]
IC50 [1]: 1030 nM

Cc1c(Cc2ccccc2)c2c(N3CCc4ccccc4C3)nccc2n1CC1OCCO1 [Example 65, 3-benzyl-1-([1,3]dioxolan-2-ylmethyl)-2-methyl-4-(1,2,3,4-tetrahydroisoquinolin-2-yl)-1H-pyrrolo[3,2-c]pyridine hydrochloride]
IC50 [1]: 2120 nM

Cc1[nH]c2ccnc(N3CCc4ccccc4C3)c2c1Cc1ccccc1.Cl [Example 55, 3-benzyl-2-methyl-4-(1,2,3,4-tetrahydroisoquinolin-2-yl)-1H-pyrrolo[3,2-c]pyridine hydrochloride]
inhibition of H+/K+-ATPase activity after washout (hog gastric H+/K+-ATPase; after washout, compared with non-treated group): did not inhibit
inhibition of H+/K+-ATPase activity before washout (hog gastric H+/K+-ATPase; before washout, compound at the concentration giving 50% inhibition): 50%
ED50 [2]: 1.6 mg/kg
IC50 [1]: 90 nM

Cc1c(Cc2ccccc2)c2c(N3CCc4ccccc4C3)nccc2n1C.Cl [Example 56, 3-benzyl-1,2-dimethyl-4-(1,2,3,4-tetrahydroisoquinolin-2-yl)-1H-pyrrolo[3,2-c]pyridine hydrochloride]
ED50 [2]: 2.9 mg/kg
IC50 [1]: 230 nM

Cc1[nH]c2ccnc(NCc3ccc(F)cc3)c2c1Cc1ccccc1 [Example 71, 3-benzyl-2-methyl-4-(4-fluorobenzylamino)-1H-pyrrolo[3,2-c]pyridine hydrochloride]
IC50 [1]: 530 nM
